From patent US20080242663A1, “NOVEL PYRIMIDINE DERIVATIVES 698” (ASTRAZENECA AB, priority 2007, published 2008)

Molecular target: T1, recombinant EphB4 (Homo sapiens, UniProt P54760)
T1 construct: amino acids 563-987; Swiss-Prot Acc; No. P54760; purchased ProQinase GmbH 0178-0000-3
T1 sequence (P54760 563-987): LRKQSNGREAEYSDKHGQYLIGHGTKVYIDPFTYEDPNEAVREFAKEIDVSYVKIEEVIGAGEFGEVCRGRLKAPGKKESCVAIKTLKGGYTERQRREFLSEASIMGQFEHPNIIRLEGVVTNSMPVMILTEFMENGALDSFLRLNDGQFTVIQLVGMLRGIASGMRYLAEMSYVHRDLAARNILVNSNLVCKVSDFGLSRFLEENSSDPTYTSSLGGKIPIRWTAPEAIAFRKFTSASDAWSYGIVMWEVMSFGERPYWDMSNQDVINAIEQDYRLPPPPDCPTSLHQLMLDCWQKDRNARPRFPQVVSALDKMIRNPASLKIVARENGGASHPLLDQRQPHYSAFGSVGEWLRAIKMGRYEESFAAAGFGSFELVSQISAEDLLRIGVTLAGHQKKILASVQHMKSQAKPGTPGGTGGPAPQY
Experiment: In vitro EphB4 enzyme assay (Alphascreen)
Format: biochemical
Method: This assay detects inhibitors of EphB4-mediated phosphorylation of a polypeptide substrate using Alphascreen™ luminescence detection technology. Briefly, recombinant EphB4 was incubated with a biotinylated-polypeptide substrate (biotin-poly-GAT) in presence of magnesium-ATP. The reaction was stopped by addition of EDTA, together with streptavidin-coated donor beads which bind the biotin-substrate containing any phosphorylated tyrosine residues. Anti-phosphotyrosine antibodies present on acceptor beads bind to phosphorylated substrate, thus bringing the donor & acceptor beads into close proximity. Subsequent excitation of the donor beads at 680 nm generated singlet oxygen species that interact with a chemiluminescer on the acceptor beads, leading to light emission at 520-620 nm. The signal intensity is directly proportional to the level of substrate phosphorylation and thus inhibition is measured by a decrease in signal.
Assay plates were then incubated at room temperature for 1 hr. […] The plates were sealed under natural lighting conditions, wrapped in aluminium foil and incubated in the dark for a further 20 hrs.
The resulting assay signal was determined on the Perkin Elmer EnVision plate reader. The minimum value was subtracted from all values, and the signal plotted against compound concentration to generate IC50 data.

Row | Compound | IC50 [nM]
1 | COc1ccc(C)c(N(C)c2ccnc(Nc3cc(N4CCOCC4)cc(N4CCOCC4=O)c3)n2)c1 [Example 12.7, 4-[3-[[4-[(5-methoxy-2-methyl-phenyl)-methyl-amino]pyrimidin-2-yl]amino]-5-morpholin-4-yl-phenyl]morpholin-3-one] | 305
2 | CSc1cccc(N(C)c2ccnc(Nc3cc(N4CCOCC4)cc(N4CCOCC4)c3)n2)c1 [Example 10.7, N-(3,5-dimorpholin-4-ylphenyl)-N′-methyl-N′-(3-methylsulfanylphenyl)pyrimidine-2,4-diamine] | 638
3 | CN1CCN(c2cc(Nc3nccc(N(C)c4ccc(F)c(Cl)c4F)n3)cc(S(C)(=O)=O)c2)CC1 [Example 3, N′-(3-chloro-2,4-difluoro-phenyl)-N′-methyl-N-[3-(4-methylpiperazin-1-yl)-5-methylsulfonyl-phenyl]pyrimidine-2,4-diamine] | 65.1
4 | COCc1cc(Nc2nccc(N(C)c3ccc(F)c(Cl)c3F)n2)cc(N2CCOCC2)c1 [Example 2.14, N′-(3-chloro-2,4-difluoro-phenyl)-N-[3-(methoxymethyl)-5-morpholin-4-yl-phenyl]-N′-methyl-pyrimidine-2,4-diamine] | 653
5 | Cc1cc(C)cc(N(C)c2ccnc(Nc3cc(N4CCOCC4)cc(N4CCOCC4)c3)n2)c1 [Example 10.8, N′-(3,5-dimethylphenyl)-N-(3,5-dimorpholin-4-ylphenyl)-N′-methyl-pyrimidine-2,4-diamine] | 1100
6 | Cc1ccc(CO)cc1N(C)c1ccnc(Nc2cc(N3CCOCC3)cc(N3CCC(O)CC3)c2)n1 [Example 7.8, 1-[3-[[4-[[5-(hydroxymethyl)-2-methyl-phenyl]-methyl-amino]pyrimidin-2-yl]amino]-5-morpholin-4-yl-phenyl]piperidin-4-ol] | 75.9
7 | CN(c1cccc(Cl)c1)c1ccnc(Nc2cc(N3CCOCC3)cc(N3CCC(O)CC3)c2)n1 [Example 23, 1-[3-({4-[(3-chlorophenyl)(methyl)amino]pyrimidin-2-yl}amino)-5-morpholin-4-ylphenyl]piperidin-4-ol] | 1.71
8 | Cc1ccc(N(C)c2ccnc(Nc3cc(N4CCOCC4)cc(N4CCOCC4)c3)n2)cc1 [Example 10.1, N-(3,5-dimorpholin-4-ylphenyl)-N′-methyl-N′-(4-methylphenyl)pyrimidine-2,4-diamine] | 402
9 | CN(c1ccnc(Nc2cc(CN3CCOCC3)cc(N3CCOCC3)c2)n1)c1ccc(F)c(Cl)c1F [Example 2.16, N′-(3-chloro-2,4-difluoro-phenyl)-N′-methyl-N-[3-morpholin-4-yl-5-(morpholin-4-ylmethyl)phenyl]py-rimidine-2,4-diamine] | 307
10 | COc1ccccc1N(C)c1ccnc(Nc2cc(N3CCOCC3)cc(N3CCOCC3)c2)n1 [Example 10.12, N-(3,5-dimorpholin-4-ylphenyl)-N′-(2-methoxyphenyl)-N′-methyl-pyrimidine-2,4-diamine] | 107
11 | CN(c1ccnc(Nc2cc(N3CCOCC3)cc(N3CCOCC3)c2)n1)c1ccc(F)cc1F [Example 10.14, N′-(2,4-difluorophenyl)-N-(3,5-dimorpholin-4-ylphenyl)-N′-methyl-pyrimidine-2,4-diamine] | 381
12 | CN(c1ccnc(Nc2cccc(N3CCOCC3)c2)n1)c1ccc(F)c(Cl)c1F [Example 2.3, N′-(3-chloro-2,4-difluoro-phenyl)-N′-methyl-N-(3-morpholin-4-ylphenyl)pyrimidine-2,4-diamine] | 304
13 | COc1ccc(C)c(N(C)c2ccnc(Nc3cc(N4CCOCC4)cc(S(C)(=O)=O)c3)n2)c1 [Example 12.2, N′-(5-methoxy-2-methyl-phenyl)-N′-methyl-N-(3-methylsulfonyl-5-morpholin-4-yl-phenyl)pyrimidine-2,4-diamine] | 29.4

Further lines, results first:

Row | IC50 [nM] | Compound
14 | 481 | Cc1ccc(CO)cc1N(C)c1ccnc(Nc2cc(OC3CCOC3)cc(N3CCOCC3)c2)n1 (stereo not shown) [Example 17.8, [4-methyl-3-[methyl-[2-[[3-morpholin-4-yl-5-(oxolan-3-yloxy)phenyl]ami-no]pyrimidin-4-yl]amino]phenyl]methanol]
15 | 443 | Cc1ccc(CO)cc1N(C)c1ccnc(Nc2cc(O[C@H]3CCOC3)cc(N3CCOCC3)c2)n1 [Example 17.9, [4-methyl-3-[methyl-[2-[[3-morpholin-4-yl-5-[(3S)-oxolan-3-yl]oxyphenyl]ami-no]pyrimidin-4-yl]amino]phenyl]methanol]
16 | 1180 | CC(C)NC(=O)c1cc(Nc2nccc(N(C)c3cccc(Cl)c3)n2)cc(N2CCOCC2)c1 [Example 19.14, 3-[[4-[(3-chlorophenyl)-methyl-amino]pyrimidin-2-yl]amino]-5-morpholin-4-yl-N-propan-2-yl-benzamide]
17 | 614 | COCCNC(=O)c1cc(Nc2nccc(N(C)c3cccc(Cl)c3)n2)cc(N2CCOCC2)c1 [Example 19.18, 3-[[4-[(3-chlorophenyl)-methyl-amino]pyrimidin-2-yl]amino]-N-(2-methoxyethyl)-5-morpholin-4-yl-benzamide]
18 | 2080 | CN(c1cccc(Cl)c1)c1ccnc(Nc2cc(C(=O)NC3CCC3)cc(N3CCOCC3)c2)n1 [Example 19.13, 3-[[4-[(3-chlorophenyl)-methyl-amino]pyrimidin-2-yl]amino]-N-cyclobutyl-5-morpholin-4-yl-benzamide]
19 | 500 | COc1ccc(N(C)c2ccnc(Nc3cc(N4CCOCC4)cc(N4CCOCC4)c3)n2)cc1Cl [Example 15.14, N′-(3-chloro-4-methoxy-phenyl)-N-(3,5-dimorpholin-4-ylphenyl)-N′-methyl-pyrimidine-2,4-diamine]
20 | 52.8 | Cc1cccc(CO)c1N(C)c1ccnc(Nc2cc(N3CCOCC3)cc(N3CCOCC3)c2)n1 [Example 25.1, (2-((2-(3,5-dimorpholinophenylamino)pyrimidin-4-yl)(methyl)amino)-3-methylphenyl)methanol]
21 | 1050 | CN(c1cccc(Cl)c1)c1ccnc(Nc2cc(C(=O)NC(C)(C)CO)cc(N3CCOCC3)c2)n1 [Example 19.19, 3-[[4-[(3-chlorophenyl)-methyl-amino]pyrimidin-2-yl]amino]-N-(1-hydroxy-2-methyl-propan-2-yl)-5-morpholin-4-yl-benzamide]
22 | 696 | CN(c1ccnc(Nc2cc(N3CCOCC3)cc(N3CCOCC3)c2)n1)c1cccc(Cl)c1F [Example 15.15, N′-(3-chloro-2-fluoro-phenyl)-N-(3,5-dimorpholin-4-ylphenyl)-N′-methyl-pyrimidine-2,4-diamine]
23 | 1320 | COc1ccc(N(C)c2ccnc(Nc3cc(N4CCOCC4)cc(N4CCOCC4)c3)n2)c(C)c1 [Example 15.11, N-(3,5-dimorpholin-4-ylphenyl)-N′-(4-methoxy-2-methyl-phenyl)-N′-methyl-pyrimidine-2,4-diamine]
24 | 206 | COc1cc(N(C)c2ccnc(Nc3cc(N4CCOCC4)cc(N4CCOCC4)c3)n2)ccc1C#N [Example 15.2, 4-[[2-[(3,5-dimorpholin-4-ylphenyl)amino]pyrimidin-4-yl]-methyl-amino]-2-methoxy-benzonitrile]
25 | 2830 | CC(C)CNC(=O)c1cc(Nc2nccc(N(C)c3cccc(Cl)c3)n2)cc(N2CCOCC2)c1 [Example 19.17, 3-[[4-[(3-chlorophenyl)-methyl-amino]pyrimidin-2-yl]amino]-N-(2-methylpropyl)-5-morphohn-4-yl-benzamide]
